Ten compounds from patent US10004701B2, “Methods and compositions for treating infection” (UNIVERSITY OF ROCHESTER, priority 2012, dated 2018) can be followed below.

Assay in all cases: AK assay 384-well format, Prestwick library screening
The test system of one experiment is E. coli. The experiment is classed as cell-based, Escherichia coli. Particulars: 50 μM final drug concentration; for fold induction at 50 µM: Escherichia coli, 3 h.
In another experiment the test system is E. faecium. The experiment is classed as cell-based, Enterococcus faecium. The settings on record: 50 μM final drug concentration; for fold induction at 50 µM: Enterococcus faecium, 3 h.
The test system of another experiment is P. aeruginosa. The experiment is classed as cell-based, Pseudomonas aeruginosa. Particulars: 50 μM final drug concentration; for fold induction at 50 µM: Pseudomonas aeruginosa, 3 h.
Experiment [1] deals with S. aureus strain USA300-0114. The experiment is classed as cell-based, Staphylococcus aureus. Particulars: 50 μM final drug concentration; for fold induction at 50 µM: Staphylococcus aureus, USA300, 3 h.
Experiment [2] relates to A. baumannii strain 98-37-09. The experiment is classed as cell-based, Acinetobacter baumannii. The settings on record: 50 μM final drug concentration; for fold induction at 50 µM: Acinetobacter baumannii, 983709, 3 h.
The next experiment concerns E. cloacae. The experiment is classed as cell-based, Enterobacter cloacae. The settings on record: 50 μM final drug concentration; for fold induction at 50 µM: Enterobacter cloacae, 3 h.
In the next experiment the test system is K. pneumoniae. The experiment is classed as cell-based, Klebsiella pneumoniae. Particulars: 50 μM final drug concentration; for fold induction at 50 µM: Klebsiella pneumoniae, 3 h.
Setting [3] is: cutoff for positive-scoring molecules 3-fold increase.
The mark [4] stands for this setting: 384-well format, cutoff for positive-scoring molecules 3-fold increase, read-out: AK-based Prestwick Library Screening Results, E. faecium (increase in extracellular AK activity).
[5] abbreviates: 384-well format, cutoff for positive-scoring molecules 3-fold increase, read-out: AK-based Prestwick Library Screening Results, P. aeruginosa (increase in extracellular AK activity).
Setting [6] is: 384-well format, cutoff for positive-scoring molecules 3-fold increase, read-out: AK-based Prestwick Library Screening Results, S. aureus (increase in extracellular AK activity).
Setting [7] is: 384-well format, cutoff for positive-scoring molecules 3-fold increase, read-out: AK-based Prestwick Library Screening Results, A. baumannii (increase in extracellular AK activity).
[8] abbreviates: 384-well format, cutoff for positive-scoring molecules 3-fold increase, read-out: AK-based Prestwick Library Screening Results, E. cloacae (increase in extracellular AK activity).
Setting [9] is: 384-well format, cutoff for positive-scoring molecules 3-fold increase, read-out: AK-based Prestwick Library Screening Results, K. pneumoniae (increase in extracellular AK activity).
Where [10] appears, read: 384-well format, cutoff for positive-scoring molecules 3-fold increase, read-out: AK-based Prestwick Library Screening Results, E. coli (increase in extracellular AK activity).
Setting [11] is: planktonic E. coli, cutoff for positive-scoring molecules 3-fold increase, read-out: AK-based Prestwick Library Screening Results, E. coli (increase in extracellular AK activity).
Setting [12] is: planktonic E. faecium, cutoff for positive-scoring molecules 3-fold increase, read-out: AK-based Prestwick Library Screening Results, E. faecium (increase in extracellular AK activity).
Setting [13] is: planktonic P. aeruginosa, cutoff for positive-scoring molecules 3-fold increase, read-out: AK-based Prestwick Library Screening Results, P. aeruginosa (increase in extracellular AK activity).
The mark [14] stands for this setting: planktonic S. aureus, cutoff for positive-scoring molecules 3-fold increase, read-out: AK-based Prestwick Library Screening Results, S. aureus (increase in extracellular AK activity).
Setting [15] is: planktonic A. baumannii, cutoff for positive-scoring molecules 3-fold increase, read-out: AK-based Prestwick Library Screening Results, A. baumannii (increase in extracellular AK activity).
Where [16] appears, read: planktonic E. cloacae, cutoff for positive-scoring molecules 3-fold increase, read-out: AK-based Prestwick Library Screening Results, E. cloacae (increase in extracellular AK activity).
[17] abbreviates: planktonic K. pneumoniae, cutoff for positive-scoring molecules 3-fold increase, read-out: AK-based Prestwick Library Screening Results, K. pneumoniae (increase in extracellular AK activity).
Setting [18] is: planktonic, cutoff for positive-scoring molecules 3-fold increase.

SMILES strings stand for the structures. Structures can show the parent of a compound that is named as a salt. Where two headings read alike, the source gives them in different places.

With `C#C[C@]1(O)CC[C@H]2[C@@H]3CCc4cc(OC)ccc4[C@H]3CC[C@@]21C` [Ethynylestradiol 3-methyl ether], in the experiment with E. coli (setting [3]), the “AK-based Prestwick Library Screening Results, E. coli (fold increase in extracellular AK activity)” value is listed as 1.2. Further, in the experiment with E. faecium (setting [3]), the “AK-based Prestwick Library Screening Results, E. faecium (fold increase in extracellular AK activity)” value is recorded as 0.9. The “AK-based Prestwick Library Screening Results, P. aeruginosa (fold increase in extracellular AK activity)” value in the experiment with P. aeruginosa (setting [3]) was 1.1. Moreover, the “AK-based Prestwick Library Screening Results, S. aureus (fold increase in extracellular AK activity)” value in experiment [1] (setting [3]) is given as 0.8. Further, the “AK-based Prestwick Library Screening Results, A. baumannii (fold increase in extracellular AK activity)” value in experiment [2] (setting [3]) is on record as 1.1. In addition, in the experiment with E. cloacae (setting [3]), the “AK-based Prestwick Library Screening Results, E. cloacae (fold increase in extracellular AK activity)” value turned out to be 1.5. Also, in the experiment on K. pneumoniae (setting [3]), the “AK-based Prestwick Library Screening Results, K. pneumoniae (fold increase in extracellular AK activity)” value is recorded as 0.8.
Take `O=S(=O)(O)c1cc(O)ccc1O` [Ethamsylate]: the fold induction at 50 µM in the experiment with E. coli (planktonic E. coli, […], read-out: AK-based Prestwick library screening result, E. coli (fold increase in extracellular AK activity)) was 1.2; with E. faecium (planktonic E. faecium, […], read-out: AK-based Prestwick library screening result, E. faecium (fold increase in extracellular AK activity)), 0.9; in the experiment with P. aeruginosa (planktonic P. aeruginosa, […], read-out: AK-based Prestwick library screening result, P. aeruginosa (fold increase in extracellular AK activity)), 1; in experiment [1] (planktonic S. aureus, […], read-out: AK-based Prestwick library screening result, S. aureus (fold increase in extracellular AK activity)), 1; in experiment [2] (planktonic A. baumannii, […], read-out: AK-based Prestwick library screening result, A. baumannii (fold increase in extracellular AK activity)), 1.2; in the experiment on E. cloacae (planktonic E. cloacae, […], read-out: AK-based Prestwick library screening result, E. cloacae (fold increase in extracellular AK activity)), 0.8. The fold induction at 50 µM with K. pneumoniae (planktonic K. pneumoniae, […], read-out: AK-based Prestwick library screening result, K. pneumoniae (fold increase in extracellular AK activity)) came out at 1.1.
For the compound `CNC[C@H](O)[C@@H](O)[C@H](O)[C@H](O)CO` [Meglumine], the fold induction at 50 µM was found to be 0.5 with E. coli (planktonic, […], read-out: AK-based Prestwick Library Screening Results, E. coli (fold increase in extracellular AK activity)); 0.8 in the experiment on E. faecium (planktonic, […], read-out: AK-based Prestwick Library Screening Results, E. faecium (fold increase in extracellular AK activity)); 0.5 in the experiment on P. aeruginosa (planktonic, […], read-out: AK-based Prestwick Library Screening Results, P. aeruginosa (fold increase in extracellular AK activity)); 0.5 in experiment [1] (planktonic, […], read-out: AK-based Prestwick Library Screening Results, S. aureus (fold increase in extracellular AK activity)); 0.5 in experiment [2] (planktonic, […], read-out: AK-based Prestwick Library Screening Results, A. baumannii (fold increase in extracellular AK activity)); 0.6 with E. cloacae (planktonic, […], read-out: AK-based Prestwick Library Screening Results, E. cloacae (fold increase in extracellular AK activity)). Besides, the fold induction at 50 µM with K. pneumoniae (planktonic, […], read-out: AK-based Prestwick Library Screening Results, K. pneumoniae (fold increase in extracellular AK activity)) was 0.7.
For `CN1Cc2c(N)cccc2C(c2ccccc2)C1` (stereo not shown) [Nomifensine maleate], the fold induction at 50 µM in the experiment with E. coli (384-well format, […], read-out: AK-based Prestwick Library Screening Results, E. coli (increase in extracellular AK activity)) was found to be 0.9; in the experiment on E. faecium (setting [4]) it was 0.9; in the experiment on P. aeruginosa (setting [5]) it was 0.8; in experiment [1] (setting [6]), 0.7; in experiment [2] (setting [7]), 0.8; in the experiment with E. cloacae (setting [8]), 1. Further, the fold induction at 50 µM with K. pneumoniae (setting [9]) is 0.8.
Consider `Cc1ccccc1OCC(O)CO` (stereo not shown) [Mephenesin], for which the fold induction at 50 µM was determined as 0.7 in the experiment with E. coli (setting [10]); 1 in the experiment on E. faecium (setting [4]); 0.6 in the experiment with P. aeruginosa (setting [5]); 0.8 in experiment [1] (setting [6]); 0.8 in experiment [2] (setting [7]); 0.8 with E. cloacae (setting [8]). Besides, the fold induction at 50 µM in the experiment on K. pneumoniae (setting [9]) came out at 0.7.
As to `CCOC(=O)n1ccn(C)c1=S` [Carbimazole], the fold induction at 50 µM in the experiment with E. coli (setting [11]) was found to be 0.8; in the experiment on E. faecium (setting [12]) it was 0.9; in the experiment on P. aeruginosa (setting [13]), 0.7; in experiment [1] (setting [14]) it was 0.6; in experiment [2] (setting [15]) it was 0.8; in the experiment on E. cloacae (setting [16]), 1.2. Moreover, the fold induction at 50 µM in the experiment with K. pneumoniae (setting [17]) was found to be 0.7.
On to `CC(=O)N(CC(C)C(=O)O)c1c(I)cc(I)c(N)c1I` (stereo not shown) [locetamic acid], for which the “AK-based Prestwick Library Screening Results, E. coli (fold increase in extracellular AK activity)” value in the experiment on E. coli (planktonic, […]) was 0.9. In addition, in the experiment on E. faecium (setting [18]), the “AK-based Prestwick Library Screening Results, E. faecium (fold increase in extracellular AK activity)” value came out at 0.9. The “AK-based Prestwick Library Screening Results, P. aeruginosa (fold increase in extracellular AK activity)” value in the experiment with P. aeruginosa (setting [18]) stood at 0.9. Further, the “AK-based Prestwick Library Screening Results, S. aureus (fold increase in extracellular AK activity)” value in experiment [1] (setting [18]) was found to be 0.8. Further, in experiment [2] (setting [18]), the “AK-based Prestwick Library Screening Results, A. baumannii (fold increase in extracellular AK activity)” value came out at 0.8. The “AK-based Prestwick Library Screening Results, E. cloacae (fold increase in extracellular AK activity)” value in the experiment with E. cloacae (setting [18]) was 1.4. Further, the “AK-based Prestwick Library Screening Results, K. pneumoniae (fold increase in extracellular AK activity)” value with K. pneumoniae (setting [18]) is 0.8.
In the case of `CNc1ncnc2c1ncn2[C@@H]1O[C@H](CO)[C@@H](O)[C@H]1O` [Compound N6-methyladenosine, N6-methyladenosine], the fold induction at 50 µM in the experiment on E. coli (setting [11]) stood at 0.6; in the experiment with E. faecium (setting [12]), 0.9; with P. aeruginosa (setting [13]) it was 0.6; in experiment [1] (setting [14]), 0.5; in experiment [2] (setting [15]), 0.6; with E. cloacae (setting [16]), 0.7. For the same compound, the fold induction at 50 µM in the experiment on K. pneumoniae (setting [17]) amounted to 0.5.
With `CCn1cc(C(=O)O)c(=O)c2cc3c(cc21)OCO3` [Oxolinic acid], the fold induction at 50 µM in the experiment with E. coli (setting [10]) was determined as 13.1; with E. faecium (setting [4]) it was 1.1; in the experiment with P. aeruginosa (setting [5]) it was 1; in experiment [1] (setting [6]), 1; in experiment [2] (setting [7]), 2.3; in the experiment with E. cloacae (setting [8]), 4.3. For the same compound, the fold induction at 50 µM in the experiment with K. pneumoniae (setting [9]) was determined as 1.6.
With `CCCCc1cc2ccccc2c(OCCN(C)C)n1` [Dimethisoquin hydrochloride], the fold induction at 50 µM in the experiment on E. coli (planktonic, cutoff for positive 3-fold increase, read-out: AK-based Prestwick Library Screening Results, E. coli (fold increase in extracellular AK activity)) came out at 1.3; with E. faecium (planktonic, cutoff for positive 3-fold increase, read-out: AK-based Prestwick Library Screening Results, E. faecium (fold increase in extracellular AK activity)) it was 1; in the experiment with P. aeruginosa (planktonic, cutoff for positive 3-fold increase, read-out: AK-based Prestwick Library Screening Results, P. aeruginosa (fold increase in extracellular AK activity)), 1.2; in experiment [1] (planktonic, cutoff for positive 3-fold increase, read-out: AK-based Prestwick Library Screening Results, S. aureus (fold increase in extracellular AK activity)) it was 1.3; in experiment [2] (planktonic, cutoff for positive 3-fold increase, read-out: AK-based Prestwick Library Screening Results, A. baumannii (fold increase in extracellular AK activity)), 1.5; with E. cloacae (planktonic, cutoff for positive 3-fold increase, read-out: AK-based Prestwick Library Screening Results, E. cloacae (fold increase in extracellular AK activity)) it was 1.5. Also, the fold induction at 50 µM in the experiment with K. pneumoniae (planktonic, cutoff for positive 3-fold increase, read-out: AK-based Prestwick Library Screening Results, K. pneumoniae (fold increase in extracellular AK activity)) was 1.2.
